Laboratory results taken from patent publication US20240245711A1, “A 19-NOR C3,3-DISUBSTITUTED C21-N-PYRAZOLYL STEROID FOR THE TREATMENT OF MAJOR DEPRESSIVE DISORDER” (Sage Therapeutics, Inc., priority 2021, published 2024).
Values joined by “and” are separate entries in the source; they are usually repeats but may differ in a detail not shown here. Equal entries are not always repeated.

System: adult subjects with Major Depressive Disorder
Assay: Phase 3 open-label 1-year study: need for re-treatment (number of and time to re-treatments)
Type: in vivo, human
From the text: Secondary Objective: To assess the need for re-treatment with Compound (1) following initial treatment in adults with MDD currently experiencing an MDE over a 1-year period, and to assess the response of initial treatment and re-treatment(s) with Compound (1) following an initial 2-week treatment period in adults with MDD currently experiencing an MDE over a 1-year period.
Secondary Endpoints: The need for re-treatment with Compound (1) as assessed by: time to first re-treatment (Kaplan-Meier curves), number of subjects achieving the requirements for re-treatment, number of re-treatment cycles for each subject, the response of initial treatment and/or re-treatment as assessed by: change from baseline in the 17-item Hamilton Rating Scale for Depression (HAM-D) total score at the end of each 14-day treatment (initial and/or re-treatment) period, HAM-D response at the end of each 14-day treatment (initial and/or re-treatment) period, defined as a ≥50% reduction in HAM-D score from baseline, HAM-D remission at the end of each 14-day treatment (initial and/or re-treatment) period, defined as HAM-D total score≤7, Clinical Global Impression-Improvement (CGI-I) response, defined as “much improved” or “very much improved”, at the end of each 14-day treatment (initial and/or re-treatment) period, change from baseline in Clinical Global Impression-Severity (CGI-S) score at the end of each 14-day treatment (initial and/or re-treatment) period.
Subjects who continued in the Observation Period were monitored remotely via PHQ-9 assessment every two weeks. If PHQ-9 score was >=10 at any assessment, PHQ-9 assessment was switch to every week until the score came down below 10 or the subject was dosed with Compound (1) in a subsequent cycle, whichever was earlier. A subject was to come back to the site for HAM-D assessment within a week of PHQ-9 score >=10; if the HAM-D total score >=20 and at least 56 days had elapsed since the last dose of Compound (1), another dosing cycle of Compound (1) were to start. If any of these criteria were not met, the subject couldn't be treated with Compound (1) at that time. Without the trigger of PHQ-9>=10 the subject was to have a clinic visit every 8 weeks. A subject could have at most 5 cycles of treatment within a year. FIG. 2 is a depiction of the eligibility criteria of the study.
The cohorts pertaining to the different doses that the subjects received were defined as following: • 50 mg cohort: This cohort includes subjects who have initiated treatment with 50 mg and received re-treatment with 50 mg only. • 30 mg cohort: This cohort includes subjects who have initiated treatment with 30 mg regardless of the dose they have received in re-treatments. • Low dose cohort: This cohort includes subjects who have initiated treatment with 30 mg and received re-treatment with 30 mg only. • Dose switch cohort: This cohort includes subjects who have received initial treatment with 30 mg and at least one subsequent re-treatment with 50 mg. • Study Period X: starts on the date of the first dose of Compound (1) in cycle X and goes up to one day prior to the first dose of the next cycle. In some embodiments, X is any number from 1 to 5. • Treatment Period X: starts on the date of the first dose of Compound (1) in cycle X and goes up to one day after the last dose in cycle X. In some embodiments, X is any number from 1 to 5. • Treatment Cycle X: starts on the date of the first dose of Compound (1) in cycle X and goes up to 14 days after the last dose in cycle X. The treatment cycles may be denoted as C1-C5. • Observation period X: starts the day after Treatment Cycle X ends and goes up to one day prior to the start of next treatment cycle. In some embodiments, X is any number from 1 to 5.
Analysis Sets: The safety set was defined as all subjects who were administered study drug. The period-specific safety set includes subjects in the safety set who were administered study drug in the corresponding treatment cycle. […]

[1] = 50 mg Cohort (N = 146), Examples 2-3 cut-off
[2] = 50 mg Cohort FAS (146), one-year follow-up (Example 4)
[3] = 50 mg Cohort, Examples 2-3 cut-off
[4] = Cycle 3, 50 mg Cohort (FAS), 1 subject

`C[C@@]1(O)CC[C@H]2[C@H](CC[C@@H]3[C@@H]2CC[C@]2(C)[C@@H](C(=O)Cn4cc(C#N)cn4)CC[C@@H]32)C1` [Compound (1), 1-(2-((3R,5R,8R,9R,10S,13S,14S,17S)-3-hydroxy-3,13-dimethylhexadecahydro-1H-cyclopenta[a]phenanthren-17-yl)-2-oxoethyl)-1H-pyrazole-4-carbonitrile] was tested, and the “Average (range) number of re-treatments per subject over 1-year follow-up” value (30 mg Cohort) was 1.2 (0-4) and 1.2, the “Average total number of treatments per subject” value (30 mg Cohort) was 2.2 and the “Dosed in at least 1 re-treatment cycle, % of eligible” value (30 mg Cohort (472 eligible)) was 279 (59.1%). For the same molecule, the “Qualified to be retreated in at least 1 more cycle (HAM-D total score >= 20), % of eligible” value (30 mg Cohort (472 eligible)) was 305 (64.6%), the “FAS Subjects Dosed in C2, n (%) of FAS” value (30 mg Cohort Overall) was 279 (57.1%) and the “FAS Subjects dosed in C3, n (%) of FAS” value (30 mg Cohort Overall) was 154 (31.5%). For the same molecule, the “FAS Subjects dosed in C4, n (%) of FAS” value (30 mg Cohort Overall) was 96 (19.6%), the “FAS Subjects dosed in C5, n (%) of FAS” value (30 mg Cohort Overall) was 43 (8.8%) and the “Subjects with No re-treatment (Cycle 1), n (%) of FAS” value (30 mg cohort (N = 489)) was 210 (42.9%). The “Subjects with Only 1 re-treatment (Cycle 2), n (%) of FAS” value (30 mg cohort (N = 489)) was 125 (25.6%), the “Subjects with Only 2 re-treatment (Cycle 3), n (%) of FAS” value (30 mg cohort (N = 489)) was 58 (11.9%) and the “Subjects with Only 3 re-treatment (Cycle 4), n (%) of FAS” value (30 mg cohort (N = 489)) was 53 (10.8%). The “Subjects with Only 4 re-treatment (Cycle 5), n (%) of FAS” value (30 mg cohort (N = 489)) was 43 (8.8%) and 43 8.8%), the “Dosed in at least 1 re-treatment cycle, % of eligible” value (50 mg Cohort (122 eligible)) was 26 (21.3%) and the “Qualified to be retreated in at least 1 more cycle (HAM-D total score >= 20), % of eligible” value (50 mg Cohort (122 eligible)) was 36 (29.5%). For the same molecule, the “Subjects with No re-treatment (Cycle 1), n (%) of FAS” value [1] was 120 (82.2%), the “Subjects with Only 1 re-treatment (Cycle 2), n (%) of FAS” value [1] was 25 (17.1%) and the “Subjects with Only 2 re-treatment (Cycle 3), n (%) of FAS” value [1] was 1 (0.7%). The “Subjects who received 1 treatment course in total” value [2] was 54.8%, the “Subjects who received 2 treatment courses in total” value [2] was 24.7% and the “Subjects who received 3 treatment courses in total” value [2] was 10.3%. The “Subjects who received 4 treatment courses in total” value [2] was 6.8%, the “Subjects who received 5 treatment courses in total” value [2] was 3.4% and the “Subjects who received at most one additional treatment cycle” value [2] was 79.5%. The “FAS Subjects Dosed in C2, n (%) of FAS” value [3] was 26 (17.8%), the “FAS Subjects dosed in C3, n (%) of FAS” value [3] was 1 (0.7%) and the “Proportion with zero or at most 1 additional treatment cycle, by use of antidepressant therapy at baseline” value (50 mg Cohort, one-year follow-up (Example 4)) was “similar”. For the same molecule, the “n/N: FAS subjects eligible and dosed in Cycle X / eligible for dosing in Cycle X” value (Cycle 2, 50 mg Cohort) was 26/122, the “Time to re-treatment since last dose in previous cycle, Mean (SD)” value (“Time to re-treatment since last dose … (SD)” below) (Cycle 2, 50 mg Cohort (FAS)) was 70.5 (18.52) Days and the “Time to re-treatment since last dose in previous cycle, Median” value (“Time … Median” for short) (Cycle 2, 50 mg Cohort (FAS)) was 62.5 days. For the same molecule, the “Time to re-treatment since last dose in previous cycle, Min - Max” value (from here on “Time to re-treatment since last dose … - Max”) (Cycle 2, 50 mg Cohort (FAS)) was 58 to 122 days, the “n/N: FAS subjects eligible and dosed in Cycle X / eligible for dosing in Cycle X” value (Cycle 2, Dose Switch) was 80/80 and the “Time to re-treatment since last dose … (SD)” value (Cycle 2, Dose Switch (FAS)) was 116.5 (70.26) Days. For the same molecule, the “Time … Median” value (Cycle 2, Dose Switch (FAS)) was 91 days, the “Time to re-treatment since last dose … - Max” value (Cycle 2, Dose Switch (FAS)) was 58 to 318 days and the “n/N: FAS subjects eligible and dosed in Cycle X / eligible for dosing in Cycle X” value (Cycle 2, Low Dose) was 199/392. The “Time to re-treatment since last dose … (SD)” value (Cycle 2, Low Dose (FAS)) was 99.5 (52.15) Days, the “Time … Median” value (Cycle 2, Low Dose (FAS)) was 78 days and the “Time to re-treatment since last dose … - Max” value (Cycle 2, Low Dose (FAS)) was 58 to 297 days. For the same molecule, the “n/N: FAS subjects eligible and dosed in Cycle X / eligible for dosing in Cycle X” value (Cycle 3, 50 mg Cohort) was 1/4, the “Time to re-treatment since last dose … (SD)” value [4] was 58 (NA) Days and 58.0 (NA), 58.0, Days and the “Time … Median” value [4] was 58 Days and 58.0 (NA), 58.0, Days. The “Time to re-treatment since last dose … - Max” value [4] was 58-58 Days, the “n/N: FAS subjects eligible and dosed in Cycle X / eligible for dosing in Cycle X” value (Cycle 3, Dose Switch) was 71/76 and the “Time to re-treatment since last dose … (SD)” value (Cycle 3, Dose Switch (FAS)) was 92.5 (34.44) Days. For the same molecule, the “Time … Median” value (Cycle 3, Dose Switch (FAS)) was 79 days, the “Time to re-treatment since last dose … - Max” value (Cycle 3, Dose Switch (FAS)) was 58 to 214 days and the “n/N: FAS subjects eligible and dosed in Cycle X / eligible for dosing in Cycle X” value (Cycle 3, Low Dose) was 83/166. The “Time to re-treatment since last dose … (SD)” value (Cycle 3, Low Dose (FAS)) was 87.2 (34.97) Days, the “Time … Median” value (Cycle 3, Low Dose (FAS)) was 72 days and the “Time to re-treatment since last dose … - Max” value (Cycle 3, Low Dose (FAS)) was 52 to 217 days. The “n/N: FAS subjects eligible and dosed in Cycle X / eligible for dosing in Cycle X” value (Cycle 4, Dose Switch) was 53/63, the “Time to re-treatment since last dose … (SD)” value (Cycle 4, Dose Switch (FAS)) was 69.9 (13.40) Days and the “Time … Median” value (Cycle 4, Dose Switch (FAS)) was 66 days. For the same molecule, the “Time to re-treatment since last dose … - Max” value (Cycle 4, Dose Switch (FAS)) was 57 to 120 days, the “n/N: FAS subjects eligible and dosed in Cycle X / eligible for dosing in Cycle X” value (Cycle 4, Low Dose) was 43/74 and the “Time to re-treatment since last dose … (SD)” value (Cycle 4, Low Dose (FAS)) was 72.1 (17.67) Days. The “Time … Median” value (Cycle 4, Low Dose (FAS)) was 65 days, the “Time to re-treatment since last dose … - Max” value (Cycle 4, Low Dose (FAS)) was 57 to 113 days and the “n/N: FAS subjects eligible and dosed in Cycle X / eligible for dosing in Cycle X” value (Cycle 5, Dose Switch) was 23/45. The “Time to re-treatment since last dose … (SD)” value (Cycle 5, Dose Switch (FAS)) was 61.4 (6.24) Days.
